We go through 4 compounds from patent US6355481B1, “Hybridoma cell line and monoclonal antibody for huntingtin protein” (Emory University, priority 1999, dated 2002).

Assay [1] deals with 150Q cells. As to the kind of experiment: Cell viability (MTS) assay, 150Q cells. The format is cell-based, rat. How it is done: Cell viability and apoptosis assays. […] PC12 cells were plated in 96-well plates at a density of 10,000 cells/well and maintained 16-24 hr in complete medium. […] Leptomycin B (LMB; 10 nM) [provided by Dr. Minoru Yoshida (Kudo et al. (1997) J. Biol. […] After drug treatment, 20 μl of MTS reagent (2.1 mg/ml) was added to each well. The cells were then incubated for 30-45 min at 37° C. in a 5% CO2 incubator. The reaction was stopped by adding 25 μl of 10% SDS. The plates were read with a microplate reader (SPECTRAmax Plus; Molecular Devices, Palo Alto, Calif.) at 490 nm. Each data point was obtained using a triplet-well assay.

For assay [2], the system named is 150Q cells. The assay can be described thus: EM48 immunofluorescence and Hoechst staining after LMB, 150Q cells. The following applies: LMB 10 nM. The format is cell-based, rat. Here is the method:
(§1) Immunofluorescent labeling of cultured cells. Transfected cells grown in chamber slides were fixed in 4% paraformaldehyde in PBS for 15 min, permeabilized with 0.4% Triton X-100 in PBS for 30 min, blocked with 5% normal goat serum (NGS) in PBS for 1 hr, and incubated with primary antibodies in 2% NGS and PBS overnight at 4° C. After several washes, the cells were incubated with secondary antibodies conjugated with either FITC or rhodamine (Jackson ImmunoResearch, West Grove, Pa.). Hoechst dye (1 μg/ml) was used to label the nuclei. A Zeiss fluorescent microscope (Axioskop 2) and video system (Dage-MTI, Michigan City, Ind.) were used to capture images. The captured images were stored and processed using Adobe Photoshop software. Cell viability and apoptosis assays. […] PC12 cells were plated in 96-well plates at a density of 10,000 cells/well and maintained 16-24 hr in complete medium. […] Leptomycin B (LMB; 10 nM) [provided by Dr. Minoru Yoshida (Kudo et al. (1997) J. Biol. Chem. 272:29742-29751)] was added to the medium for 12-16 hr. After drug treatment, 20 μl of MTS reagent (2.1 mg/ml) was added to each well. The cells were then incubated for 30-45 min at 37° C. in a 5% CO2 incubator. The reaction was stopped by adding 25 μl of 10% SDS. The plates were read with a microplate reader (SPECTRAmax Plus; Molecular Devices, Palo Alto, Calif.) at 490 nm. […]

Assay [3] relates to 20Q cells. As to the kind of experiment: EM48 immunofluorescence and Hoechst staining after LMB, 20Q cells. The class given is cell-based, rat. As to conditions: LMB 10 nM. Here is the method:
as §1

Assay [4] relates to parental PC12 cells. The assay can be described thus: Neurite outgrowth assay, parental PC12 cells. The class given is cell-based, rat. As to conditions: for neurite outgrowth promoted by growth factor: control/parental PC12 cells, IL-6 20 ng/ml, CNTF 20 ng/ml, EGF 10 ng/ml, bFGF 20 ng/ml. How it is done: To evaluate neurite outgrowth, we plated the cells at low density (2×10^4 Cells/cm^2) onto six-well plates. Cell cultures were treated with NGF (100 ng/ml) for 48 hr or with staurosporine (50-100 nM) and EGF (10 ng/ml) for 16 hr and were fixed with 4% paraformaldehyde in PBS for 15 min. After several washes with PBS, cells with neurites exceeding the cell diameter were counted using an inverted microscope (Olympus Optical CK2, Tokyo, Japan). At the same time, five to seven images (10×) were captured by a Pixera camera, and the percentage of cells with neurites was confirmed by analyzing these images. On average, 500-800 cells were counted for each group.

In assay [5] the test system is PC12 cells expressing the 150Q mutant HD exon-1 protein (150Q cells). The assay can be described thus: Neurite outgrowth assay, 150Q cells. The class given is cell-based, rat. An excerpt: (§2) Huntingtin constructs, transfection, and selection of stably transfected cell lines. A partial huntingtin CDNA containing 20 (20Q) or 150 CAG repeats was isolated from a lambda phage DNA that contains exon-1 of the human HD gene [provided by Dr. Gillian Bates (Mangiarini et al. (1996) Cell 87:493-506)]. The N-terminal huntingtin fragments encoded by these cDNAs were expressed using the pCIS expression vector that carries a cytomegalovirus promoter (Li et al. (1998) Hum. Molec. Genet. 7:777-782). The pCDNA3 vector, which carries the G418 resistance gene (Invitrogen, San Diego, Calif.), was cotransfected with the pCIS-huntingtin constructs. Subconfluent PC12 cells in 80 mm dishes were transfected with 7 μg of plasmid DNA and 10 μg/ml lipofectAMINE (Life Technologies) per dish. The transfected cells were then selected in the presence of 500 μg/ml G418 in DM EM plus 5% fetal bovine serum and 10% horse serum. Selected G418-resistant cells were subcloned and maintained in the same conditioned medium until each cell line contained homogenous transfected cells. […]
(§3) To evaluate neurite outgrowth, we plated the cells at low density (2×10^4 Cells/cm^2) onto six-well plates. […] After several washes with PBS, cells with neurites exceeding the cell diameter were counted using an inverted microscope (Olympus Optical CK2, Tokyo, Japan). […] On average, 500-800 cells were counted for each group.

Assay [6] concerns parental PC12 cells. As to the kind of experiment: Trypan blue exclusion cell death assay, parental PC12 cells. As to conditions: 100 nm staurosporine. The format is cell-based, rat. How it is done:
(§4) Cell death rate and neurite outgrowth assays. Cells were plated at a standard density (4×10^4/cm^2) in six-well plates with DMEM supplemented with 5% FBS and 10% horse serum. Cultured cells were harvested, centrifuged at 1000 rpm for 5 min, and resuspended in PBS containing 0.4% trypan blue. The cells were incubated in the trypan blue solution for 10 min and transferred to a hemocytometer, and the number of viable (phase bright) and nonviable (blue) cells was recorded. For each sample, cell counts in four corner fields of the hemocytometer were averaged.

The subject of assay [7] is 150Q cells. As to the kind of experiment: Trypan blue exclusion cell death assay, 150Q cells. The format is cell-based, rat. Here is the method:
as §4

The subject of assay [8] is 20Q cells. As to the kind of experiment: Cell viability (MTS) assay, 20Q cells. The class given is cell-based, rat. As to conditions: 20Q cells vs parental PC12 cells, >250 nM staurosporine.
Procedure: Cell viability was determined by a modified 3-(4,5-dimethylthiazol-2-yl)-2,5-diphenyltetrazohum bromide (MTS) assay (Cell Titer 96; Promega), which is based on the conversion of tetrazolium salt 3-(4,5-dimethylthiazol-2-yl)-5-(3-carboxymethoxyphenyl)-2-(4-sulfophenyl) 2-H-tetrazolium by mitochondrial dehydrogenase to a formazan product, as measured at an absorbance of 490 nm. PC12 cells were plated in 96-well plates at a density of 10,000 cells/well and maintained 16-24 hr in complete medium. Cells were then changed to medium containing 1% FBS in the absence or presence of staurosporine at different concentrations. Staurosporine was dissolved in 2 mM dimethylsulfoxide (DMSO) and diluted in the medium at various concentrations. […] After drug treatment, 20 μl of MTS reagent (2.1 mg/ml) was added to each well. The cells were then incubated for 30-45 min at 37° C. in a 5% CO2 incubator. The reaction was stopped by adding 25 μl of 10% SDS. The plates were read with a microplate reader (SPECTRAmax Plus; Molecular Devices, Palo Alto, Calif.) at 490 nm. Each data point was obtained using a triplet-well assay.
The subject of assay [9] is parental PC12 cells. As to conditions: PC12 cells (Yao et al. 1997); cited from earlier work.
The test system of assay [10] is PC12 cells expressing the 20Q HD exon-1 protein (20Q cells). The assay can be described thus: Neurite outgrowth assay, 20Q cells. The class given is cell-based, rat. The following applies: IL-6 20 ng/ml.
From the text: as §2, §3

Setting [11] is: 150Q cells treated with EGF and staurosporine together.

As to `CCC(=C/[C@H](C)C/C=C/C(C)=C/[C@@H](C)C(=O)[C@@H](C)[C@H](O)[C@@H](C)C/C(C)=C/C(=O)O)/C=C/[C@@H]1OC(=O)C=C[C@@H]1C` [LMB, Leptomycin B], the “cell viability after exposure to LMB” value with 150Q cells [1] (150Q cells vs control cells, LMB 10 nM) is “more 150Q cells than control cells were dying”. Also, the “DNA fragmentation after LMB” value with 150Q cells [2] is “more 150Q cells showed DNA fragmentation”. The “intranuclear EM48 labeling after LMB” value with 150Q cells [2] (vs without LMB) is given as “more 150Q cells had intense intranuclear EM48 labeling”. In the assay on 20Q cells [3], the “DNA fragmentation after LMB” value is “very few LMB-treated 20Q cells had DNA fragmentation” and the “nuclear labeling after LMB” value is “increased the nuclear labeling of some 20Q cells”.
For the compound `CN[C@@H]1C[C@H]2O[C@@](C)([C@@H]1OC)n1c3ccccc3c3c4c(c5c6ccccc6n2c5c31)C(=O)NC4` [staurosporine], the “neurite outgrowth with staurosporine” value with parental PC12 cells [4] (parental PC12 cells, 100 nm staurosporine) is listed as “grew neurites”; in [5] (150Q cells, 100 nm staurosporine, living cells) it was “some of the living 150Q cells displayed neurite outgrowth”. For the same compound, the “cell death with staurosporine” value with parental PC12 cells [6] is given as “without displaying significant cell death”; in the assay on 150Q cells [7] (150Q cells, 100 nm staurosporine), “killed a significant number of 150Q cells”. Besides, in the assay with 150Q cells [1] (150Q cells vs 20Q or parental PC12 cells, 10-125 nM staurosporine), the “susceptibility to staurosporine (cell viability)” value is “more susceptible”. Moreover, the “cell killing by higher doses of staurosporine” value with 20Q cells [8] is on record as “killed more 20Q cells than parental PC12 cells”. Besides, the “time to initiation of neurite outgrowth” value in the assay on parental PC12 cells [9] is 4 to 6 h.
“EGF: epidermal growth factor (NSDSECPLSHDGYCLHDGVCMYIEALDKYACNCVVGYIGERCQYRDLKWWELR; Epidermal growth factor; UniProt P01133 971-1023, looked up)”: in the assay with parental PC12 cells [4], the “neurite outgrowth promoted by growth factor” value is “very weak effect”. Further, the “effect of EGF on neurite outgrowth” value in assay [5] (setting [11]) was “significantly enhanced neurite outgrowth”. Besides, the “effect of EGF on cell death” value with 150Q cells [7] (setting [11]) is “reduced cell death”. For the same compound, in the assay on 150Q cells [1] (150Q cells, EGF 10 ng/ml in the presence of 10-100 nM staurosporine), the “effect of EGF on cell viability” value was “significantly increased cell viability”.
For IL-6: interleukin-6, the “neurite outgrowth promoted by growth factor” value (with parental PC12 cells [4]; in assay [10]) was “promoted neurite outgrowth” each time.
